pIC50: −log10 of the molar value. Entries after “also recorded” stand apart in the source; their conditions may differ. Read-outs that look alike come from different tables or passages of the source.
Columns and labels:
[1] = target: uridine 5′-diphospho-glucuronosyltransferase (UGT) 1A1; settings: read-out: UGT1A1 inhibition IC50; in vitro; cited from earlier work
[2] = Aqueous solubility of mono-mesylate salt; assay type: physicochemical
[3] = tested on: anti-immunoglobulin E-stimulated CD63 expression on basophils; experiment: CD63 assay: ex vivo anti-IgE-stimulated CD63 expression on whole-blood basophils; assay type: cell-based, human
[4] = Safety and tolerability, FIH study; assay type: in vivo, human
[5] = fed vs fasted, dose-dependent
clinical [6] = settings: human, in vivo, po
[7] = Safety and tolerability, fed studies; assay type: in vivo, human; settings: n = 40
[8] = tested on: relapsed or refractory CLL; settings: 800 mg twice-daily oral, relapsed or refractory CLL (n = 41), cited from earlier work
clinical [9] = settings: human, in vivo; for Tmax: t max; for Tmax / half-life: fasted; for half-life: t ½
[10] = for C trough: Day 7 (steady state), mean (%CV)
B cell malignancies = settings: 200 or 250 mg twice daily, cited from earlier work
[11] = FIH study (fasted), multiple dose, n = 56
[12] = FIH study (fasted), single dose, n = 40
[13] = po, 200 mg, Day 7 (steady state), 200 mg twice daily oral, median (interquartile range)
[14] = po, 600 mg, Day 7 (steady state), 600 mg twice daily oral, median (interquartile range)
[15] = po, 1200 mg, Day 7 (steady state), 1200 mg twice daily oral, median (interquartile range)

c1cn2cc(-c3ccc4cn[nH]c4c3)nc(Nc3ccc(N4CCOCC4)cc3)c2n1 [entospletinib, Entospletinib]
pIC50 [1]: ~5.60 | solubility ([2]; aqueous buffer, pH 2): 3000 µg/mL | solubility ([2]; aqueous medium): < 1 µg/mL | inhibition of CD63 expression maintained at C trough ([3]; doses ≥600 mg twice daily, 12 h post-dose): ≥ 63% | maximal mean inhibition of CD63 expression ([3]; doses ≥600 mg twice daily, peak at 2–4 h post-dose): ≥ 86% | EC50 for inhibition of CD63 ([3]; plasma concentration–response, percentage of baseline): 0.429 µg/mL | severity of adverse events ([4]; FIH and fed studies): mild to moderate; also recorded: mild or moderate | discontinuations due to treatment-related AEs ([4]; FIH study): no AE-driven study drug discontinuations | Laboratory abnormality Grade ≥3: ALT [4, 11]: 1 (1.8) n (%) | Laboratory abnormality Grade ≥3: AST [4, 11]: 1 (1.8) n (%) | Laboratory abnormality Grade ≥3: Total bilirubin [4, 11]: 1 (1.8) n (%) | Treatment-related AE: Headache [4, 11]: 18 (32.1) n (%) | Treatment-related AE: Oropharyngeal pain [4, 11]: 6 (10.7) n (%) | Treatment-related AE: Rhinorrhea [4, 11]: 7 (12.5) n (%) | Laboratory abnormality Grade ≥3: Creatinine kinase [4, 12]: 1 (2.5) n (%) | Treatment-related AE: Headache [4, 12]: 5 (12.5) n (%) | Treatment-related AE: Nausea [4, 12]: 6 (10.7) n (%) | tolerability ([4]; single or multiple oral doses, healthy adults): generally well-tolerated; also recorded: When administered in single or multiple oral doses in healthy adults, entospletinib monotherapy is generally well-tolerated | reduction in AUC under fed conditions [5]: 20–80% | reduction in C max under fed conditions [5]: 20–70% | half-life (clinical [6]): ~9 h | AUC(0-inf) (clinical [6]; 25 mg): 231 ng·h/mL | Cmax (clinical [6]; 25 mg): 42.3 ng/mL | Tmax (clinical [6]; 25 mg): 2 h | half-life (clinical [6]; 25 mg): 6.77 h | AUC(0-inf) (clinical [6]; 75 mg): 413 ng·h/mL | Cmax (clinical [6]; 75 mg): 67.8 ng/mL | Tmax (clinical [6]; 75 mg): 2.75 h | half-life (clinical [6]; 75 mg): 5.31 h | AUC(0-inf) (clinical [6]; 200 mg): 4250 ng·h/mL | Cmax (clinical [6]; 200 mg): 534 ng/mL | Tmax (clinical [6]; 200 mg): 2 h | half-life (clinical [6]; 200 mg): 9.51 h | Cmax (clinical [6]; 600 mg): 779 ng/mL | Tmax (clinical [6]; 600 mg): 2 h | half-life (clinical [6]; 600 mg): 7.72 h | AUC(0-inf) (clinical [6]; 1200 mg): 9740 ng·h/mL | Cmax (clinical [6]; 1200 mg): 1060 ng/mL | Tmax (clinical [6]; 1200 mg): 3.25 h | half-life (clinical [6]; 1200 mg): 9.59 h | Treatment-related AE: Headache [7]: 10 (25.0) n (%) | Treatment-related AE: Oropharyngeal pain [7]: 5 (12.5) n (%) | Treatment-related AE: Urinary tract infection [7]: 1 (2.5) n (%) | progression-free survival (PFS) rate ([8]; at 24 weeks): 70.1% | median PFS [8]: 13.8 months | Tmax (clinical [9]; [13]): 2.27 h | half-life (clinical [9]; [13]): 10 h | Tmax (clinical [9]; [14]): 2.25 h | half-life (clinical [9]; [14]): 15.4 h | AUC(0-t) (clinical [9]; po, 900 mg): 5860 ng·h/mL | Tmax (clinical [9]; [15]): 2.75 h | half-life (clinical [9]; [15]): 13.9 h | half-life (clinical [9]; doses ≤200 mg twice daily): ~9 h | increase in exposure (C max and AUC) on day 7 compared with day 1 ([10]; 7 days of twice-daily dosing, fasted): 2- to 4 fold | C trough ([10]; 25 mg twice daily oral, fasted): 11.9 (64.5) ng/mL | C trough ([10]; 75 mg twice daily oral, fasted): 79.2 (64.0) ng/mL | C trough ([10]; 200 mg twice daily oral, fasted): 380 (63.3) ng/mL | C trough ([10]; 600 mg twice daily oral, fasted): 1242 (65.6) ng/mL | C trough ([10]; 900 mg twice daily oral, fasted): 1473 (67.2) ng/mL | C trough ([10]; 1200 mg twice daily oral, fasted): 1471 (79.6) ng/mL | steady-state C trough levels ([10]; doses of 600 mg twice daily or higher): > 1200 ng/mL | terminal t ½ ([10]; single and multiple oral administration, fasted): 9 h

COc1cc(Nc2ncc(F)c(Nc3ccc4c(n3)N(COP(=O)(O)O)C(=O)C(C)(C)O4)n2)cc(OC)c1OC [fostamatinib]
overall response rate (ORR) (B cell malignancies; CLL/small lymphocyte leukemia): 55% | overall response rate (ORR) (B cell malignancies; DLBCL): 22% | overall response rate (ORR) (B cell malignancies; FL): 10% | overall response rate (ORR) (B cell malignancies; MCL): 11%
